Test results taken from patent publication US20230265103A1 (TME Therapeutics LLC, priority 2021, published 2023).

Assays:
[1] = molecular target: T1, PIKFYVE (Homo sapiens, UniProt Q9Y2I7); assay: KINOMEscan Kinase Assay (Eurofins), PIKFYVE inhibitory activity; format: binding; conditions: for IC50: KINOMEscan; for inhibition at 0.003 µM: @ 3 nM; for inhibition at 0.005 µM: @ 5 nM
T1 construct: purchased Eurofins (KINOMEscan); host or cells: E. coli BL21-derived (T7 phage display) or HEK-293

[2] = tested on: SARS-CoV-2 (strain USA-WA1/2020); assay: SARS-CoV-2 antiviral assay (inhibition of CPE, neutral red); format: cell-based; conditions: SARS-COV2; for EC50: Severe acute respiratory syndrome coronavirus 2, inhibition of CPE by 50%
[3] = tested on: SARS-CoV-2 (Delta strain B.1.617); assay: SARS-CoV-2 Delta antiviral assay (inhibition of CPE, neutral red); format: cell-based; conditions: SARS-COV2 (Delta)
[4] = tested on: influenza A strain California/07/09 (H1N1)pdm09; assay: Influenza A antiviral assay (inhibition of CPE, neutral red); format: cell-based; conditions: for EC50: Influenza A virus, H1N1
[5] = tested on: Ebola virus (Mayinga strain) glycoprotein (rVSV-EBOV-GP); assay: microbe, parasite or virus in culture; format: cell-based
[6] = tested on: Marburg virus (Angola strain) glycoprotein (rVSV-MARV-GP); assay: organism not typed; format: cell-based
[7] = in vitro; conditions: African green monkey
[8] = tested on: JJN3 (multiple myeloma) cells; assay: Anti-proliferative activity, JJN3 (CellTiter-Glo); conditions: Homo sapiens, JJN-3, 144 h
[9] = tested on: HuT-78 (T cell lymphoma) cells; assay: Anti-proliferative activity, HuT-78 (CellTiter-Glo); conditions: Homo sapiens, HuT78, 144 h
[10] = in vitro; conditions: dog

T1 sequence (Q9Y2I7 whole entry): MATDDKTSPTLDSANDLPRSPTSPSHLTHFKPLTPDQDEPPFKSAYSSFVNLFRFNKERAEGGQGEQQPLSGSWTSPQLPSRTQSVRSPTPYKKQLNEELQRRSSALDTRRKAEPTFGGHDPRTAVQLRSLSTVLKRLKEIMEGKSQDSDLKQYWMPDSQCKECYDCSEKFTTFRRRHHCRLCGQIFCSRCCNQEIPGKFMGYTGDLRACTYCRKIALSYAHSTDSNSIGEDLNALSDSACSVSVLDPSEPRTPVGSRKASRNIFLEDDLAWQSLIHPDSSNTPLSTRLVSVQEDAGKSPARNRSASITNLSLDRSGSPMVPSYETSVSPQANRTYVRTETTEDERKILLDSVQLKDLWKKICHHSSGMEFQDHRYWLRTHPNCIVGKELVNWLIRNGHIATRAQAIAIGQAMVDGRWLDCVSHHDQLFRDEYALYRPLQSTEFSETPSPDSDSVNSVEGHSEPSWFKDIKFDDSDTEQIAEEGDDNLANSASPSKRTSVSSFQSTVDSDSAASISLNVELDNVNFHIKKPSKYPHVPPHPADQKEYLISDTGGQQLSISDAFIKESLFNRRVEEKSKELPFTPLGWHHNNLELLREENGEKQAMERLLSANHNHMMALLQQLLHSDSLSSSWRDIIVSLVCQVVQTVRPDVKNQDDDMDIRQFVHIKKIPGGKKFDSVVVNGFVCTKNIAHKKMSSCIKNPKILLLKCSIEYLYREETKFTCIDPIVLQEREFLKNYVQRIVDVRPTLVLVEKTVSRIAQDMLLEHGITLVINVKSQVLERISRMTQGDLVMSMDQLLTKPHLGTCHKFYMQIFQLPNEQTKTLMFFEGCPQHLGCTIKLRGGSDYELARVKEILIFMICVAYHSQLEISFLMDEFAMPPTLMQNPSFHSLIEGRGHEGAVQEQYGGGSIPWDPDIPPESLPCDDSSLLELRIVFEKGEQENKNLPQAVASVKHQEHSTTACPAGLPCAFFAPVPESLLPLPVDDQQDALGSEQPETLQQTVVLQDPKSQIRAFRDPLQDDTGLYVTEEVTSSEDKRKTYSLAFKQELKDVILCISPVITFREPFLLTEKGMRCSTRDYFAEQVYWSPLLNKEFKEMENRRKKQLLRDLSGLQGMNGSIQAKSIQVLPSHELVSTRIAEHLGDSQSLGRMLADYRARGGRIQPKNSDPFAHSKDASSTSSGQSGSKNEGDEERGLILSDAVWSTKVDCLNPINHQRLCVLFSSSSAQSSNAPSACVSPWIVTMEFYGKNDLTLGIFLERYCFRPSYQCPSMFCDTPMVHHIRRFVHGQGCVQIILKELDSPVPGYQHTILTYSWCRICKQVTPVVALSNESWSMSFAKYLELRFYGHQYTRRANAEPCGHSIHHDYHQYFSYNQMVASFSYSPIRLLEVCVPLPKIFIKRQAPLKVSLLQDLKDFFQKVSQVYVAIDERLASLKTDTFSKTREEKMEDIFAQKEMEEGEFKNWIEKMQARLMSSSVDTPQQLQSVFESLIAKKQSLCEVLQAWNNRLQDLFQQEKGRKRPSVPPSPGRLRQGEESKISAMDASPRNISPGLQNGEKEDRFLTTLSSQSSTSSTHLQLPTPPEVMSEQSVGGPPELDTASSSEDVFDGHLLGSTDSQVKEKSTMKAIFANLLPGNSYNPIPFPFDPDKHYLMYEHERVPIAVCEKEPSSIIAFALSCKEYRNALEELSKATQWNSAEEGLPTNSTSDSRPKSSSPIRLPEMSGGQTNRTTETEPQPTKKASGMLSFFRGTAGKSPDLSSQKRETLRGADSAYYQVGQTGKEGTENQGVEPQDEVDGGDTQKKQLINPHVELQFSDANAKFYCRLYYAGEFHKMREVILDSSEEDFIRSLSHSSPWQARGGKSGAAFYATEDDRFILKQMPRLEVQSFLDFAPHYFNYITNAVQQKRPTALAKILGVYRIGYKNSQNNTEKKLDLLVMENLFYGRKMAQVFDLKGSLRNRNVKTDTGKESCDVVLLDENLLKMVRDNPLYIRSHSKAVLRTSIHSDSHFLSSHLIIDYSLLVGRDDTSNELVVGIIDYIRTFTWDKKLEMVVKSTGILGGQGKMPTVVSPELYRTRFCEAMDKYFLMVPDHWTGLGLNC

Cc1cccc(-c2ccn(-c3nc(N4CCOCC4)c4sc(CN5CCN(S(C)(=O)=O)CC5)cc4n3)n2)c1 [Ex. 2, 4-(6-((4-(methylsulfonyl)piperazin-1-yl)methyl)-2-(3-(m-tolyl)-1H-pyrazol-1-yl)thieno[3,2-d]pyrimidin-4-yl)morpholine]
IC50 [1]: < 0.001 µM
Selectivity Index ([2]; CC50 divided by EC50): >150
EC50 [2]: < 1 µM
Selectivity Index ([3]; CC50 divided by EC50): >1000
EC50 ([3]; Severe acute respiratory syndrome coronavirus 2): < 3 µM
EC50 [4]: < 1 µM
Selectivity Index ([4]; Influenza A, CC50 divided by EC50): >150
Selectivity Index [5]: >6000
EC50 ([5]; Zaire ebolavirus, Vero): < 0.5 µM
Selectivity Index [6]: >15000
EC50 ([6]; Vero): < 0.2 µM
CC50 [7]: > 3000 µM
EC50 [8]: < 0.05 µM
EC50 [9]: < 0.25 µM

Cc1cccc(-c2ccn(-c3cc(N4CCOCC4)c4sc(CN5CCC(N(C)C)C(F)C5)cc4n3)n2)c1 (stereo not shown) [Ex. 69, 3-fluoro-N,N-dimethyl-1-((7-morpholino-5-(3-(m-tolyl)-1H-pyrazol-1-yl)thieno[3,2-b]pyridin-2-yl)methyl)piperidin-4-amine]
IC50 [1]: < 0.001 µM

Cc1cccc(-c2ccn(-c3cc(N4CCOCC4)c4sc(CN5CCC(N6CCC6)C(F)C5)cc4n3)n2)c1 (stereo not shown) [Ex. 70, 4-(2-((4-(azetidin-1-yl)-3-fluoropiperidin-1-yl)methyl)-5-(3-(m-tolyl)-1H-pyrazol-1-yl)thieno[3,2-b]pyridin-7-yl)morpholine]
IC50 [1]: < 0.001 µM

Cc1cccc(-c2ccn(-c3nc(N4CCCOCC4)c4sc(CN5CCN(S(C)(=O)=O)CC5)cc4n3)n2)c1 [Ex. 71, 4-(6-((4-(methylsulfonyl)piperazin-1-yl)methyl)-2-(3-(m-tolyl)-1H-pyrazol-1-yl)thieno[3,2-d]pyrimidin-4-yl)-1,4-oxazepane]
IC50 [1]: 0.01 to 0.1 µM

Cc1cccc(-c2ccn(-c3cc(N4CCOCC4)c4nc(CN5CCN(S(C)(=O)=O)CC5)n(C)c4n3)n2)c1 [Ex. 72, 4-(3-methyl-2-((4-(methylsulfonyl)piperazin-1-yl)methyl)-5-(3-(m-tolyl)-1H-pyrazol-1-yl)-3H-imidazo[4,5-b]pyridin-7-yl)morpholine]
IC50 [1]: < 0.001 µM

Cc1cccc(-c2ccn(-c3nc(N4CC5CC4CO5)c4sc(CN5CCN(S(C)(=O)=O)CC5)cc4n3)n2)c1 (stereo not shown) [Ex. 73, 5-(6-((4-(methylsulfonyl)piperazin-1-yl)methyl)-2-(3-(m-tolyl)-1H-pyrazol-1-yl)thieno[3,2-d]pyrimidin-4-yl)-2-oxa-5-azabicyclo[2.2.1]heptane]
IC50 [1]: 0.01 to 0.1 µM

Cc1cccc(-c2ccn(-c3cc(N4CCOCC4)c4nc(CN5CCOCC5)n(C)c4n3)n2)c1 [Ex. 74, 4-(3-methyl-2-(morpholinomethyl)-5-(3-(m-tolyl)-1H-pyrazol-1-yl)-3H-imidazo[4,5-b]pyridin-7-yl)morpholine]
IC50 [1]: < 0.001 µM

Cc1cccc(-c2ccn(-c3cc(N4CCOCC4)c4nc(CO)n(C)c4n3)n2)c1 [Ex. 75, (3-methyl-7-morpholino-5-(3-(m-tolyl)-11H-pyrazol-1-yl)-3H-imidazo[4,5-b]pyridin-2-yl)methanol]
IC50 [1]: 0.001 to 0.01 µM

Cc1cccc(-c2ccn(-c3cc(N4CCOCC4)c4nc(CN5CCC(C(C)(C)O)CC5)n(C)c4n3)n2)c1 [Ex. 76, 2-(1-((3-methyl-7-morpholino-5-(3-(m-tolyl)-1H-pyrazol-1-yl)-3H-imidazo[4,5-b]pyridin-2-yl)methyl)piperidin-4-yl)propan-2-ol]
IC50 [1]: < 0.001 µM

Cc1cccc(-c2ccn(-c3nc(N4CCC(=O)C4)c4sc(CN5CCN(S(C)(=O)=O)CC5)cc4n3)n2)c1 [Ex. 129, 1-(6-((4-(methylsulfonyl)piperazin-1-yl)methyl)-2-(3-(m-tolyl)-1H-pyrazol-1-yl)thieno[3,2-d]pyrimidin-4-yl)pyrrolidin-3-one]
inhibition at 0.03 µM ([1]; @ 30 nM): 92%

Cc1cccc(-c2ccn(-c3nc(N4CCOCC4)c4sc(N5CCN(S(C)(=O)=O)CC5)cc4n3)n2)c1 [Ex. 165, 4-(6-(4-(methylsulfonyl)piperazin-1-yl)-2-(3-(m-tolyl)-1H-pyrazol-1-yl)thieno[3,2-d]pyrimidin-4-yl)morpholine]
inhibition at 0.003 µM [1]: 22%

Cc1cccc(-c2ccn(-c3cc(N4CCOCC4)c4sc(CN5CCOCC5)c(C)c4n3)n2)c1 [Ex. 167, 4-(3-Methyl-2-(morpholinomethyl)-5-(3-(m-tolyl)-1H-pyrazol-1-yl)thieno[3,2-b]pyridin-7-yl)morpholine]
inhibition at 0.003 µM [1]: 0%

Cc1cccc(-c2ccn(-c3cc(N4CCOCC4)c4sc(CN5CCC(C(C)(C)O)CC5)c(C)c4n3)n2)c1 [Ex. 168, 2-(1-((3-Methyl-7-morpholino-5-(3-(m-tolyl)-1H-pyrazol-1-yl)thieno[3,2-b]pyridin-2-yl)methyl)piperidin-4-yl)propan-2-ol]
inhibition at 0.003 µM [1]: 23%

Brc1ccn(-c2cc(N3CCOCC3)c3sc(CN4CCOCC4)cc3n2)n1 [Ex. 173, 4-(5-(3-Bromo-1H-pyrazol-1-yl)-2-(morpholinomethyl)thieno[3,2-b]pyridin-7-yl)morpholine]
inhibition at 0.005 µM [1]: 8%

CC(=O)c1cccc(-c2ccn(-c3cc(N4CCOCC4)c4sc(CN5CCOCC5)cc4n3)n2)c1 [Ex. 184, 1-(3-(1-(7-Morpholino-2-(morpholinomethyl)thieno[3,2-b]pyridin-5-yl)-1H-pyrazol-3-yl)phenyl)ethan-1-one]
inhibition at 0.005 µM [1]: 5%

Cc1cc(-c2ccn(-c3cc(N4CCOCC4)c4sc(CN5CCOCC5)cc4n3)n2)ccn1 [Ex. 190, 4-(5-(3-(2-Methylpyridin-4-yl)-1H-pyrazol-1-yl)-2-(morpholinomethyl)thieno[3,2-b]pyridin-7-yl) morpholine]
inhibition at 0.005 µM [1]: 5%

CC(O)c1cccc(-c2ccn(-c3cc(N4CCOCC4)c4sc(CN5CCOCC5)cc4n3)n2)c1 (stereo not shown) [Ex. 193, 1-(3-(1-(7-Morpholino-2-(morpholinomethyl)thieno[3,2-b]pyridin-5-yl)-1H-pyrazol-3-yl)phenyl)ethan-1-ol]
inhibition at 0.005 µM [1]: 22%

CCC(CC)COC(=O)[C@H](C)N[P@](=O)(OC[C@H]1O[C@@](C#N)(c2ccc3c(N)ncnn23)[C@H](O)[C@@H]1O)Oc1ccccc1 [remdesivir, reference compound]
EC50 [2]: 5.6 µM
CC50 [10]: > 100 µM

NC(=O)c1ncn([C@@H]2O[C@H](CO)[C@@H](O)[C@H]2O)n1 [ribavirin, reference compound]
EC50 [4]: 3.8 µM
CC50 [10]: > 1000 µM
